How the values were obtained:
[1] = target: T1, human A3-adenosine receptor (Homo sapiens, UniProt P0DMS8); experiment: A3 receptor binding, determined in analogy to Salvatore et al. (Table 21); details: Rezeptorbindungswerte, Tabelle 21, read-out: KiA3
T1 sequence (P0DMS8 1-318): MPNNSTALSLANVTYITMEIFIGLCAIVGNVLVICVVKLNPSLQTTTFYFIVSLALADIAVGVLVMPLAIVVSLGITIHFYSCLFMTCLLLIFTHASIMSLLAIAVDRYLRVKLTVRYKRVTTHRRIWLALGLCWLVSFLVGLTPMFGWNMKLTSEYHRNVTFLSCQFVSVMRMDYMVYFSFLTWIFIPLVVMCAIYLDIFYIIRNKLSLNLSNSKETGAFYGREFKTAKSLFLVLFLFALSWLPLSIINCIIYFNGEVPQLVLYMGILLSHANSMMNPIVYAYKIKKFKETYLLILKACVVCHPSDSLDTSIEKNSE
Excerpt: Die in Tabelle 21 zusammengefassten A3-Rezeptorbindungswerte wurden in Analogie zu Salvatore et al. "Molecular cloning and characterization of the human A3-adenosine receptor" (Proc. Natl. Acad. Sci. USA 90, 10365-10369, 1993) ermittelt.
Die nachfolgende Tabelle enthält KiA3 (human) Rezeptorbindungswerte. Tabelle 21

[2] = target: T2, human A1 adenosine Receptor (Homo sapiens, UniProt P30542); experiment: A1 receptor binding, determined in analogy to Ensinger et al. (Table 20); details: Rezeptorbindungswerte, Tabelle 20, read-out: KiA1
T2 sequence (P30542 1-326): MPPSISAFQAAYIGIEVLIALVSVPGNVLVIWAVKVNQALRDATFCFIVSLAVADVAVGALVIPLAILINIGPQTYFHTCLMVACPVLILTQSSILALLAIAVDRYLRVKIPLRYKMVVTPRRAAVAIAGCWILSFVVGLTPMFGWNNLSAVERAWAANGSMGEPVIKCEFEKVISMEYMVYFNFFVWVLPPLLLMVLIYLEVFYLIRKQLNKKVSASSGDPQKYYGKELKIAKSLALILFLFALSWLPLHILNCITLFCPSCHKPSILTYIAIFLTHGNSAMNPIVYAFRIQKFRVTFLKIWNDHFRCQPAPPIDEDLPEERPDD
Excerpt: Die ermittelten A1-Rezeptorbindungswerte wurden in Analogie zu Ensinger et al. in "Cloning and functional characterisation of human A1 adenosine Receptor - Biochemical and Biophysical Communications, Vol 187, No. 2, 919-926, 1992" bestimmt und sind in Tabelle 20 zusammengefaßt.
(§1) Die nachfolgende Tabelle enthält KiA1 (human) und KiA2 (Ratte) Rezeptorbindungswerte. Tabelle 20

A2-Rezeptor = A2-Rezeptor (Rattus norvegicus, UniProt P30543); experiment: A2 receptor binding (Table 20); details: Ratte; Rezeptorbindungswerte, Tabelle 20; read-out: KiA2
Chain of A2-Rezeptor (P30543 whole entry): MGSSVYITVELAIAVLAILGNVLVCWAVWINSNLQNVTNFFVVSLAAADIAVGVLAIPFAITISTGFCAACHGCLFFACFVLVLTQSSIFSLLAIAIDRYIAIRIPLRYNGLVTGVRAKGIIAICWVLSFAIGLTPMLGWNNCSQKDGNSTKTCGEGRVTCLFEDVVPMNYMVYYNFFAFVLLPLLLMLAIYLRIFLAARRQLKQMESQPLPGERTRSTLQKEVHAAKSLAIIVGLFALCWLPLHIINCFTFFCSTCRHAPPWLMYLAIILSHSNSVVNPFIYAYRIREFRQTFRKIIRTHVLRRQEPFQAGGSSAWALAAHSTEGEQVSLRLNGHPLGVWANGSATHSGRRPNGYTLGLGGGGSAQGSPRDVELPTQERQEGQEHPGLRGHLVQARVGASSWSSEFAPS
Excerpt: as §1

CCc1nc2c([nH]1)c(=O)n1nc(CCc3ccccc3)nc1n2CC [compound 78]
Ki [1]: 5.3 nM

CCCn1c2nc(CC)[nH]c2c(=O)n2nc(C3CCCC3)nc12 [Beispiel 23]
Ki [1]: 2 nM

Cn1c2nc(C3CCCC3)[nH]c2c(=O)n2nc(Cc3ccccc3)nc12 [Beispiel 8]
Ki [2]: 1.9 nM | Ki (A2-Rezeptor): 363 nM

CCn1c2nc(C3CCCC3)[nH]c2c(=O)n2ncnc12 [Beispiel 30]
Ki [2]: 81.5 nM | Ki (A2-Rezeptor): 3290 nM

CCCc1nc2n(CCC)c3nc(C4CCCC4)[nH]c3c(=O)n2n1 [Beispiel 36]
Ki [2]: 5.8 nM | Ki (A2-Rezeptor): 731 nM

CCCn1c2nc(C3CCCC3)[nH]c2c(=O)n2nc(Cc3ccccc3)nc12 [Beispiel 10]
Ki [2]: 1.7 nM | Ki (A2-Rezeptor): 730 nM

CCCn1c2nc(N(C)C)[nH]c2c(=O)n2nc(Cc3ccccc3)nc12 [compound 65]
Ki [1]: 3 nM

CCCn1c2nc(C3CCCC3)[nH]c2c(=O)n2nc(-c3ccco3)nc12 [Beispiel 48]
Ki [2]: 11.4 nM | Ki (A2-Rezeptor): 4460 nM

O=c1c2[nH]cnc2[nH]c2nc(C3CCCC3)nn12 [Beispiel 19]
Ki [1]: 3.8 nM

CCCn1c2nc(CC)[nH]c2c(=O)n2nc(Cc3ccccc3)nc12 [Beispiel 6]
Ki [1]: 2 nM

CCCCc1nc2n(CCC)c3nc(C4CCCC4)[nH]c3c(=O)n2n1 [Beispiel 38]
Ki [2]: 6.4 nM | Ki [1]: 22 nM | Ki (A2-Rezeptor): 532 nM

CCCn1c2nc[nH]c2c(=O)n2nc(Cc3ccccc3)nc12 [Beispiel 3]
Ki [1]: 4.7 nM

CCCCn1c2nc[nH]c2c(=O)n2nc(Cc3ccccc3)nc12 [Beispiel 4]
Ki [1]: 2.3 nM

CCCn1c2nc(C3CCCC3)[nH]c2c(=O)n2nc(C(C)C)nc12 [Beispiel 37]
Ki [2]: 6.4 nM | Ki (A2-Rezeptor): 307 nM

CCCn1c2nc(C3CCCC3)[nH]c2c(=O)n2nc(C(C)(C)C)nc12 [Beispiel 39]
Ki [2]: 6 nM | Ki (A2-Rezeptor): 539 nM

CCCc1nc2c([nH]1)c(=O)n1nc(Cc3ccccc3)nc1n2CCC [Beispiel 7]
Ki [2]: 8.1 nM | Ki (A2-Rezeptor): 158 nM

CCCCCn1c2nc(C3CCCC3)[nH]c2c(=O)n2nc(Cc3ccccc3)nc12 [Beispiel 25]
Ki [2]: 10.3 nM | Ki [1]: 26 nM | Ki (A2-Rezeptor): 1230 nM

CCCCn1c2nc(C3CCCC3)[nH]c2c(=O)n2nc(Cc3ccccc3)nc12 [Beispiel 11]
Ki [2]: 8.3 nM | Ki (A2-Rezeptor): 345 nM

CCCn1c2nc(N3CCOCC3)[nH]c2c(=O)n2nc(Cc3ccccc3)nc12 [Beispiel 13]
Ki [2]: 5.2 nM | Ki (A2-Rezeptor): 82 nM

CCc1nc2c([nH]1)c(=O)n1nc(COc3ccc(OC)cc3)nc1n2CC [compound 82]
Ki [1]: 25 nM

CCn1c2nc(C(C)(C)C)[nH]c2c(=O)n2nc(Cc3ccccc3)nc12 [compound 68]
Ki [1]: 30 nM

CCn1c2nc(C3CCCC3)[nH]c2c(=O)n2nc(Cc3ccccc3)nc12 [Beispiel 9]
Ki [2]: 1.4 nM | Ki (A2-Rezeptor): 422 nM

O=c1c2[nH]c(C3CCCC3)nc2n(Cc2ccccc2)c2nc(Cc3ccccc3)nn12 [Beispiel 12]
Ki [1]: 20 nM
